In patent US20240092757A1, “HETEROARYL DIAMIDE IRE1/XBP1s ACTIVATORS” (Protego Biopharma, Inc., priority 2021, published 2024):
Counter-ions that a name gives are not always drawn.

System: IRE1-XBP1s
Experiment: IRE1-XBP1s activation Assay (XBP1-RLuc splicing reporter, HEK293 T-REx cells)
Type: cell-based
Conditions: compound 10 μM, 18 h, HEK293 T-REx cells stably expressing XBP1-RLuc splicing reporter, relative to thapsigargin (Tg) 500 nM, read-out: Activity (IRE1-XBP1s Activation; luminescence as percentage signal relative to thapsigargin)
Procedure: IRE1-XBP1s activation Assay: HEK293 T-REx cells stably expressing the XBP1-RLuc splicing reporter were treated with an IRE1—XBP1s activator provided herein (10 μM) in the presence or absence of the IRE1 active site inhibitor 4 μ8C (32 μM) for 18 h. Luminescence was shown as the percentage signal relative to thapsigargin (Tg) (500 nM, 18 h).

Compared with Cc1ccc(CN(C)C(=O)Cn2cc(NC(=O)CCOc3ccccc3)cn2)cc1 [Compound 43], Cc1ccc(OCCN(C)C(=O)Cn2cc(NC(=O)CCc3ccccc3)cn2)cc1 [Compound 25, N-(1-(2-(Methyl(2-(p-tolyloxy)ethyl)amino)-2-oxoethyl)-1H -pyrazol-4-yl)-3-phenylpropanamide hydrochloride] is higher in activation at 10 µM: under 30% for the first, 30 to 50% for the second.

COc1ccc(OCCC(=O)Nc2cnn(CC(=O)N(C)CCOc3ccc(C)cc3)c2)cc1 [Compound 10] and Cc1ccc(OCCN(C)C(=O)Cn2cc(NC(=O)CCOc3ccc(Cl)cc3)cn2)cc1 [Compound 45] cannot be ordered by activation at 10 µM: at least 50% for the first, 30 to 50% for the second.

CN(CCOc1ccccc1)C(=O)Cn1cc(NC(=O)CCOc2ccccc2)cn1 [Compound 29, N-(1-(2-(Methyl(2-phenoxyethyl)amino)-2-oxoethyl)-1H-pyrazol-4-yl)-3-phenoxypropanamide hydrochloride] and CN(CCc1ccccc1)C(=O)Cn1cc(NC(=O)CCOc2ccccc2)cn1 [Compound 27, N-(1-(2-(methyl(phenethyl)amino)-2-oxoethyl)-1H-pyrazol-4-yl) -3-phenoxypropanamide hydrochloride] cannot be ordered by activation at 10 µM: under 30% for the first, under 30% for the second.

First: Cc1ccc(OCCN(C)C(=O)Cn2cc(NC(=O)CCCc3ccccc3)cn2)cc1 [Compound 53]
Second: Cc1ccc(OCCN(C)C(=O)Cn2cc(NC(=O)Cc3ccccc3)cn2)cc1 [Compound 26, N-Methyl-2-(4-(2-phenylacetamido)-1H-pyrazol-1-yl)-N-(2-(p-tolyloxy)ethypacetamide hydrochloride]
The activation at 10 µM of the first is higher: 30 to 50% for the first, under 30% for the second.

Cc1ccc(OCCN(C)C(=O)Cn2cc(NC(=O)CCOc3ccc(N)cc3)cn2)cc1 [Compound 37] and Cc1ccc(OCCN(C)C(=O)Cn2cc(NC(=O)CCOc3ccc(CO)cc3)cn2)cc1 [Compound 35] cannot be ordered by activation at 10 µM: at least 50% for the first, at least 50% for the second.

Cc1ccc(OCCN(C)C(=O)Cn2ccc(NC(=O)CCOc3ccccc3)n2)cc1 [Compound 50, N-(1-(2-(methyl(2-(p-tolyloxy)ethyl)amino)-2-oxoethyl)-1H -pyrazol-3-yl)-3-phenoxypropanamide] and COc1ccc(OCCC(=O)Nc2ccn(CC(=O)N(C)CCOc3ccc(C)cc3)n2)cc1 [Compound 51] cannot be ordered by activation at 10 µM: under 30% for the first, under 30% for the second.

First: CN(CCOc1ccccn1)C(=O)Cn1cc(NC(=O)CCOc2ccccc2)cn1 [Compound 38]
Second: CN(CCOc1ccc(C(F)(F)F)cn1)C(=O)Cn1cc(NC(=O)CCOc2ccccc2)cn1 [Compound 39]
The activation at 10 µM of the first is lower: under 30% for the first, 30 to 50% for the second.

Going from CN(CCCc1ccc(C(F)(F)F)cc1)C(=O)Cn1cc(NC(=O)CCOc2ccccc2)cn1 [Compound 31] to CN(CCOc1ccc(C(F)(F)F)cc1)C(=O)Cn1cc(NC(=O)CCOc2ccccc2)cn1 [Compound 30, N-(1-(2-(Methyl(2-(4-(trifluoromethyl)phenoxy)ethyl)amino)-2-oxoethyl)-1H-pyrazol-4-yl)-3-phenoxypropanamide hydrochloride], the activation at 10 µM rises from under 30% to at least 50%.

First: Cc1ccc(OCCN(C)C(=O)Cn2nc(C)c(NC(=O)CCOc3ccccc3)c2C)cc1 [Compound 47]
Second: Cc1ccc(OCCN(C)C(=O)C(C)n2cc(NC(=O)CCOc3ccccc3)cn2)cc1 (centres unmarked) [Compound 46]
The activation at 10 µM of the first is lower: under 30% for the first, 30 to 50% for the second.

Cc1ccc(OCCN(C)C(=O)Cn2cc(NC(=O)CCOc3cccc(F)c3)cn2)cc1 [Compound 36] and Cc1ccc(OCCN(C)C(=O)Cn2cc(NC(=O)CCOc3ccccc3F)cn2)cc1 [Compound 34] cannot be ordered by activation at 10 µM: at least 50% for the first, at least 50% for the second.

First: Cc1ccc(OCCN(C)C(=O)Cn2cc(NC(=O)COc3ccccc3)cn2)cc1 [Compound 44]
Second: Cc1ccc(OCCNC(=O)Cn2cc(NC(=O)CCOc3ccccc3)cn2)cc1 [Compound 41]
The activation at 10 µM of the first is higher: 30 to 50% for the first, under 30% for the second.

CN(C(=O)Cn1cc(NC(=O)CCOc2ccccc2)cn1)c1ccccc1 [Compound 28, N-(1-(2-(Methyl(phenyl)amino)-2-oxoethyl)-1H-pyrazol-4-yl)-3-phenoxypropanamide hydrochloride] and COc1ccc(OCCNC(=O)Cn2cc(NC(=O)CCOc3ccccc3)cn2)cc1 [Compound 42] cannot be ordered by activation at 10 µM: under 30% for the first, under 30% for the second.

Compared with Cc1ccc(OCCN(C)C(=O)Cn2cnc(NC(=O)CCOc3ccc(F)cc3)c2)cc1 [Compound 16], CN(CCOc1ccc(C2(C(F)(F)F)N=N2)cc1)C(=O)Cn1cc(NC(=O)CCOc2ccccc2)cn1 [Compound 40] is lower in activation at 10 µM: at least 50% for the first, under 30% for the second.
